Data published in article PMC8282722 (Current biology : CB, 2021).

Target: T1, GFP-Rab34 (LAP-Rab34) (Homo sapiens, UniProt Q9BZG1)
T1 sequence (Q9BZG1 1-259): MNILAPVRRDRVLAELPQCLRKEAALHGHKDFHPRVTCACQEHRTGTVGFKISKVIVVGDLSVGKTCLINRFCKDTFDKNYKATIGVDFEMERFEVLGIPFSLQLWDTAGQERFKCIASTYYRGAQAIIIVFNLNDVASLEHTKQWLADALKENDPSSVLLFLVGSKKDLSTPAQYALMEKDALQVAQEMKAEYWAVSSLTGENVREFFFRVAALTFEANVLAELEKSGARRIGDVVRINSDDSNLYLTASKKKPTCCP
Assay type: cell-based
Settings: labelled compound; HEK293T cells; 10 mM MgCl2 in lysis buffer

Nc1nc2c(ncn2[C@@H]2O[C@H](COP(=O)(O)OP(=O)(O)O)[C@@H](O)[C@H]2O)c(=O)[nH]1 [GDP]
32P metabolic labelling in cells, anti-GFP immunoprecipitation, TLC of bound nuc: wildtype Rab34 was mostly GDP-bound
